Source: US20150250176A1, “METHOD FOR ENHANCING TOLERANCE TO ABIOTIC STRESS IN PLANTS USING CARBOXAMIDE OR THIOCARBOXAMIDE DERIVATIVES” (BAYER CROPSCIENCE AG, priority 2012, published 2015)

Legend:
[1] = logP determination by HPLC on a reversed-phase column (EEC Directive 79/831 Annex V.A8); details: reversed-phase C18 HPLC column
Protocol: Temperature: 40° C.; Mobile phases: 0.1% aqueous formic acid and acetonitrile; linear gradient from 10% acetonitrile to 90% acetonitrile.
Calibration was carried out using unbranched alkan-2-ones (comprising 3 to 16 carbon atoms) with known logP values (determination of the logP values by the retention times using linear interpolation between two successive alkanones). lambda-max-values were determined using UV-spectra from 200 nm to 400 nm and the peak values of the chromatographic signals.

BRSNS (Brassica napus) = test: Drought stress test on crop plants, spray application, BRSNS; type: in vivo; details: mean of 2 or more experiments
Protocol: (§1) Seeds of monocotyledonous and dicotyledonous crop plants were placed in sandy loam in wood-fiber pots, covered with soil and cultivated in a greenhouse under good growth conditions. The test plants were treated at the early leaf stage (BBCH10-BBCH13). To ensure uniform water supply before commencement of stress, the potted plants were supplied with the maximum amount of water immediately beforehand by dam irrigation.
(§2) The inventive compounds, formulated in the form of wettable powders (WP) were sprayed onto the green parts of the plants as an aqueous suspension at an equivalent water application rate of 600 l/ha with addition of 0.2% wetting agent (agrotin). Substance application was followed immediately by stress treatment of the plants, for which the pots were transferred in plastic inserts in order to prevent subsequent, excessively rapid drying.
(§3) Drought stress was induced by gradual drying out under the following conditions: • “day”: 14 hours with illumination at ˜26° C. • “night”: 10 hours without illumination at ˜18° C.
(§4) The duration of the respective stress phases was guided mainly by the state of the untreated, stressed control plants and thus varies from crop to crop. It was ended (by re-irrigating or transfer to a greenhouse with good growth conditions) as soon as irreversible damage is observed on the untreated, stressed control plants. In the case of dicotyledonous crops, for example oilseed rape and soya, the duration of the drought stress phase was between 3 and 6 days, in the case of monocotyledonous crops, for example wheat, barley or corn, between 6 and 11 days.
(§5) The end of the stress phase was followed by an approx. 5-7-day recovery phase, during which the plants were once again kept under good growth conditions in a greenhouse. In order to rule out any influence of the effects observed by any fungicidal action of the test compounds, it was additionally ensured that the tests proceed without fungal infection and without infection pressure.
(§6) After the recovery phase had ended, the intensities of damage were rated visually compared to untreated, unstressed controls of the same age (in the case of drought stress) or the same growth stage (in the case of cold stress). The intensity of damage was first assessed as a percentage (100% =plants have died, 0% =like control plants). These values were then used to calculate the efficacy of the test compounds (=percentage reduction in the intensity of damage as a result of substance application) by the following formula:
(§7) [formula] • EF: efficacy (%) • DVus: damage value of the untreated, stressed control • […] with test compound
(§8) The tables below list mean values in each case from 2 or more independent experiments.
(§9) Tables A.1 to A.3 show, by way of example, the efficacies of compound of formula (I) as herein defined under drought stress and in conjunction with application to different crop plants, i.e. in table A.1 on application to BRSNS (Brassica napus), in table A.2 on application to TRZAS (Triticum aestivum) and in table A.3 on application to ZEAMX (Zea mays): […]

[2] = test system: TRZAS (Triticum aestivum); test: Drought stress test on crop plants, spray application, TRZAS; type: in vivo; details: for percent reduction in drought damage at 25 g/ha / percent reduction in drought damage at 250 g/ha / pest or weed control at 25 g/ha / pest or weed control at 250 g/ha: read-out: EF (TRZAS), efficacy = percentage reduction in the intensity of damage; for pest or weed control at 25 g/ha: dosage 25 g/ha
Protocol: as §1, §2, §3, §4, §5, §6, §7, §8, §9

ZEAMX (Zea mays) = test: Drought stress test on crop plants, spray application, ZEAMX; type: in vivo; details: dosage 250 g/ha, mean of 2 or more experiments
Protocol: as §1, §2
Drought stress was induced by gradual drying out under the following conditions: • “day”: 14 hours with illumination at ˜26° C. • “night”: 10 hours without illumination at ˜18° C. […]
After the recovery phase had ended, the intensities of damage were rated visually compared to untreated, unstressed controls of the same age (in the case of drought stress) or the same growth stage (in the case of cold stress). The intensity of damage was first assessed as a percentage (100% =plants have died, 0% =like control plants). […]

[3] = drought stress, spray, mean of 2 or more experiments
[4] = drought stress, dosage 250 g/ha, spray, mean of 2 or more experiments

For `CC(C)c1ccccc1CN(C(=O)c1c(C(F)F)nn(C)c1F)C1CC1` [Compound A1, N-cyclopropyl-3-(difluoromethyl)-5-fluoro-N-(2-isopropylbenzyl)-1-methyl-1H-pyrazole-4-carboxamide], the chromatographic logP [1] was 3.35.

With `Cn1nc(C(F)F)c(C(=O)N(Cc2ccccc2C2CC2)C2CC2)c1F` [Compound A2, N-cyclopropyl-N-(2-cyclopropylbenzyl)-3-(difluoromethyl)-5-fluoro-1-methyl-1H-pyrazole-4-carboxamide] the “EF (BRSNS), efficacy = percentage reduction in the intensity of damage” value (BRSNS (Brassica napus); dosage 2.5 g/ha) was >5%, the “EF (BRSNS), efficacy = percentage reduction in the intensity of damage” value (BRSNS (Brassica napus); dosage 25 g/ha) was >5% and the “EF (BRSNS), efficacy = percentage reduction in the intensity of damage” value (BRSNS (Brassica napus); dosage 250 g/ha) was >5%. It also gave a chromatographic logP [1] of 3.44.

For `Cn1nc(C(F)F)c(C(=O)N(Cc2ccccc2C(C)(C)C)C2CC2)c1F` [Compound A3, N-(2-tert-butylbenzyl)-N-cyclopropyl-3-(difluoromethyl)-5-fluoro-1-methyl-1H-pyrazole-4-carboxamide], the chromatographic logP [1] was 4.06, the percent reduction in drought damage at 25 g/ha [2] was > 5% and the percent reduction in drought damage at 250 g/ha [2] was > 5%.

In the case of `CCc1ccc(Cl)cc1CN(C(=O)c1c(C(F)F)nn(C)c1F)C1CC1` [Compound A4, N-(5-chloro-2-ethylbenzyl)-N-cyclopropyl-3-(difluoromethyl)-5-fluoro-1-methyl-1H-pyrazole-4-carboxamide], the chromatographic logP [1] was 3.76 and the percent reduction in drought damage at 25 g/ha [2] was > 5%.

For `CC(C)c1ccc(Cl)cc1CN(C(=O)c1c(C(F)F)nn(C)c1F)C1CC1` [Compound A5, N-(5-chloro-2-isopropylbenzyl)-N-cyclopropyl-3-(difluoromethyl)-5-fluoro-1-methyl-1H-pyrazole-4-carboxamide], the “EF (BRSNS), efficacy = percentage reduction in the intensity of damage” value (BRSNS (Brassica napus); dosage 25 g/ha) was >5%, the chromatographic logP [1] was 4.09 and the pest or weed control at 25 g/ha [2, 3] was > 5%. The pest or weed control at 250 g/ha [2, 4] was > 5%.

For `CCc1ccc(F)cc1CN(C(=O)c1c(C(F)F)nn(C)c1F)C1CC1` [Compound A6, N-cyclopropyl-3-(difluoromethyl)-N-(2-ethyl-5-fluorobenzyl)-5-fluoro-1-methyl-1H-pyrazole-4-carboxamide], the “EF (BRSNS), efficacy = percentage reduction in the intensity of damage” value (BRSNS (Brassica napus); dosage 25 g/ha) was >5%, the chromatographic logP [1] was 3.41 and the pest or weed control at 25 g/ha [2, 3] was > 5%. The pest or weed control at 250 g/ha [2, 4] was > 5%.

In the case of `CC(C)c1ccc(F)cc1CN(C(=O)c1c(C(F)F)nn(C)c1F)C1CC1` [Compound A7, N-cyclopropyl-3-(difluoromethyl)-5-fluoro-N-(5-fluoro-2-isopropylbenzyl)-1-methyl-1H-pyrazole-4-carboxamide], the “EF (BRSNS), efficacy = percentage reduction in the intensity of damage” value (BRSNS (Brassica napus); dosage 250 g/ha) was >5% and the chromatographic logP [1] was 3.7.

In the case of `Cn1nc(C(F)F)c(C(=O)N(Cc2cc(F)ccc2C2CC2)C2CC2)c1F` [Compound A8, N-cyclopropyl-N-(2-cyclopropyl-5-fluorobenzyl)-3-(difluoromethyl)-5-fluoro-1-methyl-1H-pyrazole-4-carboxamide], the “EF (ZEAMX), efficacy = percentage reduction in the intensity of damage” value (ZEAMX (Zea mays)) was >5%, the “EF (BRSNS), efficacy = percentage reduction in the intensity of damage” value (BRSNS (Brassica napus); dosage 2.5 g/ha) was >5% and the chromatographic logP [1] was 3.46.

In the case of `Cn1nc(C(F)F)c(C(=O)N(Cc2cc(F)ccc2C2CCCC2)C2CC2)c1F` [Compound A9, N-(2-cyclopentyl-5-fluorobenzyl)-N-cyclopropyl-3-(difluoromethyl)-5-fluoro-1-methyl-1H-pyrazole-4-carboxamide], the chromatographic logP [1] was 4.21.

`CC(C)c1cccc(F)c1CN(C(=O)c1c(C(F)F)nn(C)c1F)C1CC1` [Compound A10, N-cyclopropyl-3-(difluoromethyl)-5-fluoro-N-(2-fluoro-6-isopropylbenzyl)-1-methyl-1H-pyrazole-4-carboxamide] showed a chromatographic logP [1] of 3.65.

For `CCc1ccc(C)cc1CN(C(=O)c1c(C(F)F)nn(C)c1F)C1CC1` [Compound A11, N-cyclopropyl-3-(difluoromethyl)-N-(2-ethyl-5-methylbenzyl)-5-fluoro-1-methyl-1H-pyrazole-4-carboxamide], the chromatographic logP [1] was 3.7 and the pest or weed control at 25 g/ha [2, 3] was > 5%.

With `Cc1ccc(C(C)C)c(CN(C(=O)c2c(C(F)F)nn(C)c2F)C2CC2)c1` [Compound A12, N-cyclopropyl-3-(difluoromethyl)-5-fluoro-N-(2-isopropyl-5-methylbenzyl)-1-methyl-1H-pyrazole-4-carboxamide] the “EF (BRSNS), efficacy = percentage reduction in the intensity of damage” value (BRSNS (Brassica napus); dosage 2.5 g/ha) was >5%, the “EF (BRSNS), efficacy = percentage reduction in the intensity of damage” value (BRSNS (Brassica napus); dosage 25 g/ha) was >5% and the “EF (BRSNS), efficacy = percentage reduction in the intensity of damage” value (BRSNS (Brassica napus); dosage 250 g/ha) was >5%. The chromatographic logP [1] was 3.99.

For `Cc1ccc(C2CC2)c(CN(C(=O)c2c(C(F)F)nn(C)c2F)C2CC2)c1` [Compound A13, N-cyclopropyl-N-(2-cyclopropyl-5-methylbenzyl)-3-(difluoromethyl)-5-fluoro-1-methyl-1H-pyrazole-4-carboxamide], the chromatographic logP [1] was 3.76.

In the case of `Cc1ccc(C(C)(C)C)c(CN(C(=O)c2c(C(F)F)nn(C)c2F)C2CC2)c1` [Compound A14, N-(2-tert-butyl-5-methylbenzyl)-N-cyclopropyl-3-(difluoromethyl)-5-fluoro-1-methyl-1H-pyrazole-4-carboxamide], the chromatographic logP [1] was 4.36 and the percent reduction in drought damage at 250 g/ha [2] was > 5%.

Compound `Cn1nc(C(F)F)c(C(=O)N(Cc2cc(Cl)ccc2C(F)(F)F)C2CC2)c1F` [Compound A15, N-[5-chloro-2-(trifluoromethyl)benzyl]-N-cyclopropyl-3-(difluoromethyl)-5-fluoro-1-methyl-1H-pyrazole-4-carboxamide] has a chromatographic logP [1] of 3.8.

For `Cc1ccc(C(F)(F)F)c(CN(C(=O)c2c(C(F)F)nn(C)c2F)C2CC2)c1` [Compound A16, N-cyclopropyl-3-(difluoromethyl)-5-fluoro-1-methyl-N-[5-methyl-2-(trifluoromethyl)benzyl]-1H-pyrazole-4-carboxamide], the chromatographic logP [1] was 3.78 and the percent reduction in drought damage at 250 g/ha [2] was > 5%.

In the case of `Cn1nc(C(F)F)c(C(=O)N(Cc2c(Cl)cccc2C(F)(F)F)C2CC2)c1F` [Compound A17, N-[2-chloro-6-(trifluoromethyl)benzyl]-N-cyclopropyl-3-(difluoromethyl)-5-fluoro-1-methyl-1H-pyrazole-4-carboxamide], the chromatographic logP [1] was 3.46.

Compound `Cn1nc(C(F)F)c(C(=O)N(Cc2c(C(F)(F)F)ccc(Cl)c2F)C2CC2)c1F` [Compound A18, N-[3-chloro-2-fluoro-6-(trifluoromethyl)benzyl]-N-cyclopropyl-3-(difluoromethyl)-5-fluoro-1-methyl-1H-pyrazole-4-carboxamide] has a chromatographic logP [1] of 3.62.

In the case of `CCc1cc(C)c(C)cc1CN(C(=O)c1c(C(F)F)nn(C)c1F)C1CC1` [Compound A19, N-cyclopropyl-3-(difluoromethyl)-N-(2-ethyl-4,5-dimethylbenzyl)-5-fluoro-1-methyl-1H-pyrazole-4-carboxamide], the “EF (BRSNS), efficacy = percentage reduction in the intensity of damage” value (BRSNS (Brassica napus); dosage 25 g/ha) was >5%, the chromatographic logP [1] was 4.04 and the pest or weed control at 25 g/ha [2, 3] was > 5%.

With “N-cyclopropyl-3-(difluoromethyl)-5-fluoro-N-(2-isopropylbenzyl)-1-methyl-1H-pyrazole-4-carbothio-amide [Compound A20]” the “EF (TRZAS), efficacy = percentage reduction in the intensity of damage” value [2, 4] was >5%.
